Reference: PubChem BioAssay (NCI)
Where “and” joins values, the source holds several entries; their conditions need not be identical. Identical values can stand only once.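 Five compound concentrations were applied to cells in 96-well plates for 48 hours; endpoints were derived by simple linear interpolation of the resulting dose-response curve. Abbreviation: GI50, concentration required for 50% inhibition of growth. TGI: concentration producing complete growth inhibition.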

Columns and labels:
Assay in all cases: NCI-60 cell line screen, 48 h
786-0 renal = test system: 786-0 renal
HCT-116 colon = test system: HCT-116 colon
HOP-92 NSCLC = test system: HOP-92 NSCLC
K-562 leukemia = test system: K-562 leukemia
MALME-3M melanoma = test system: MALME-3M melanoma
OVCAR-3 ovarian = test system: OVCAR-3 ovarian
RPMI-8226 leukemia = test system: RPMI-8226 leukemia
SR leukemia = test system: SR leukemia
TK-10 renal = test system: TK-10 renal
U251 CNS = test system: U251 CNS

Compound | GI50 (786-0 renal) | TGI (786-0 renal) | GI50 (HCT-116 colon) | TGI (HCT-116 colon) | GI50 (HOP-92 NSCLC) | TGI (HOP-92 NSCLC) | GI50 (K-562 leukemia) | TGI (K-562 leukemia) [µM] | GI50 (MALME-3M melanoma) | TGI (MALME-3M melanoma) | GI50 (OVCAR-3 ovarian) | TGI (OVCAR-3 ovarian) | GI50 (RPMI-8226 leukemia) | TGI (RPMI-8226 leukemia) | GI50 (SR leukemia) | TGI (SR leukemia) | GI50 (TK-10 renal) | TGI (TK-10 renal) | GI50 (U251 CNS) | TGI (U251 CNS) [µM]
COc1cccc(/C=C/C(=O)c2cccc(Nc3nc(Nc4ccccc4)nc(Nc4ccccc4)n3)c2)c1 | 18.6 µM | > 65.5 µM | 1.42 µM | 2.93 µM | 1.24 µM | 50.5 µM | 3.96 µM | 45.8 | > 48.7 µM | > 100 µM | 9.16 µM | 33.5 µM | 1.78 µM | 6.49 µM | 1.89 µM | 9.13 µM | 41.5 µM | > 93.1 µM | 9.5 µM | > 73.8
COC1(C(=O)N[C@@H](C)c2ccc(-n3cc(F)cn3)nc2)CCC(c2nc(C)cc(Nc3cc(C)[nH]n3)n2)CC1 (stereo partly drawn) | 1.33 µM | 8 µM | 2.61 µM | 14 µM | 0.481 µM | 2.58 µM | 3.27 µM | > 100 | 5.87 µM | 21.7 µM | 3.13 µM | 20.6 µM | 7.18 µM | 40 µM | 6.14 µM | > 100 µM | 1.96 µM | 8.97 µM | 1.25 µM | 22.6
CN1CCN(CCc2cccc(C(=O)c3cnn(-c4ccc(F)cc4)c3N)c2)CC1 | > 25 µM | > 25 µM | > 25 µM | > 25 µM | > 25 µM | > 25 µM | > 25 µM | > 25 | > 25 µM | > 25 µM | > 25 µM | > 25 µM | > 25 µM | > 25 µM | > 25 µM | > 25 µM | > 25 µM | > 25 µM | > 25 µM | > 25
COc1cc(C2c3cc4c(cc3OC(N3CCCC3)C2C)OCO4)cc(OC)c1OC (stereo not drawn) |  | 30 µM |  | 27.7 µM |  | 21.2 µM |  | > 19.1 |  | 34.7 µM |  | 0.601 µM |  | > 19.9 µM |  | > 17.1 µM |  | 30.2 µM |  | 13.2
COc1ccccc1NC(=O)C1=C(C)NC(C)=C(C(=O)Nc2ccccc2OC)C1c1ccccc1F |  | > 100 µM |  | > 100 µM |  | > 100 µM |  | > 100 |  | > 100 µM |  | > 100 µM |  | > 100 µM |  | > 100 µM |  | > 100 µM |  | > 100
CCN(Cc1ccc(F)c(F)c1)c1ccc(CO)c(Cl)c1 | 5.44 µM | 22.9 µM | 0.0911 µM | 11.4 µM | 0.835 µM | 12.2 µM | 1.37 µM | 21.5 | 17.2 µM | 33.3 µM | 0.395 µM | 2.25 µM | 2.44 µM | 28.9 µM | 20.2 µM | 52.5 µM | 0.102 µM | 0.303 µM | 0.867 µM | 15.1
CC(C)NC[C@@H](C(=O)N1CCN(c2ncnc3c2[C@H](C)C[C@H]3O)CC1)c1ccc(Cl)cc1 | 0.334 µM and 0.546 µM | > 100 µM | > 10 µM and 23.8 µM | > 100 µM | 0.407 µM and 1.13 µM | 6.8 µM and 11.6 µM | > 10 µM and 48.1 µM | > 100 | > 10 µM and 4.54 µM | > 76.7 µM | > 10 µM and 12.3 µM | > 100 µM | > 10 µM and 38.1 µM | > 100 µM | > 10 µM and 13 µM | > 71.5 µM | 1.29 µM and 3.32 µM | > 66.4 µM | 0.958 µM and 0.683 µM | > 100
COc1ccc(N2C(C)=C(C#N)C34C(=O)N(c5ccccc5)C(=O)C3=C(O)C=CC24O)cc1 (stereo not drawn) | 19 µM | 65.8 µM | 9.73 µM | 25.5 µM | 12.5 µM | 45.3 µM | 28.3 µM | > 100 | 19.2 µM | 53.4 µM | 1.76 µM | 10.4 µM | 3.44 µM | 19.3 µM | 5.98 µM | 50.4 µM | 21.5 µM | 89 µM | 13 µM | 25.7
COc1nc(NC2OCC(OC(C)=O)C(OC(C)=O)C2OC(C)=O)c(N=CC=Nc2c(NC3OCC(OC(C)=O)C(OC(C)=O)C3OC(C)=O)nc(OC)n(C)c2=O)c(=O)n1C (stereo not drawn) |  | > 100 µM |  | > 100 µM |  | > 100 µM |  | > 100 |  | > 100 µM |  | > 100 µM |  | > 100 µM |  | > 100 µM |  | > 100 µM |  | > 100
CN(CCCN)CCCNc1nc2ccccc2c2[nH]c3ccccc3c12 | 0.169 µM | 0.853 µM | 0.173 µM | 1.2 µM | 0.208 µM | 0.736 µM | 0.0638 µM | 0.346 | 0.115 µM | 0.325 µM | 0.359 µM | 1.35 µM | 0.207 µM | 0.947 µM | 0.381 µM | 2.25 µM | 0.54 µM | 3.16 µM | 0.159 µM | 1.07
COc1cc(C2c3cc4c(cc3[C@@H](Nc3ccc(C#N)cc3)C3COC(=O)[C@H]23)OCO4)cc(OC)c1O (stereo partly drawn) | 0.112 µM | 1.92 µM and 1.19 µM | 0.452 µM and 0.389 µM | 10.8 µM and 2.45 µM and 11.4 µM | 0.685 µM | 6.77 µM and 5.99 µM | 0.987 µM and 1.85 µM |  | 0.217 µM and 1.9 µM | 9.66 µM and 2.69 µM and 17.2 µM | 1.81 µM and 2.14 µM | 50 µM and 5.33 µM and 5.32 µM | 0.869 µM and 1.33 µM | 1.42 µM and 3.87 µM and 4.73 µM | 0.468 µM | 50 µM and > 100 µM | 1.62 µM | 17.4 µM and 4.49 µM | 0.879 µM | 
COC(=O)/C=C/C=C(c1ccccc1)c1ccccc1 | 4.32 µM | 58.5 µM | 3.68 µM | 18.9 µM | 3.52 µM | 38.8 µM | 4 µM | > 100 | 4.23 µM | 30.4 µM | 2.4 µM | 8.24 µM | 6.36 µM | 95.5 µM | 4.51 µM | > 100 µM | 20.3 µM | > 100 µM | 3.6 µM | 29.3
O=C(c1ccc(F)cc1)c1cccc(C(=O)c2ccc(F)cc2)n1 |  | 77.1 µM |  | 81.8 µM |  | 44.4 µM |  | > 100 |  | > 100 µM |  | > 100 µM |  | > 100 µM |  | > 100 µM |  | 69.3 µM |  | 44.5
CC(C)(C)C[C@H]1NC(C(=O)NCC[C@H](O)CO)[C@H](c2cccc(Cl)c2)[C@@]12C(=O)Nc1cc(Cl)c(F)cc12 (stereo partly drawn) | 17 µM | 33.8 µM | 3.07 µM | 16.3 µM | 13.3 µM | 28.4 µM | 14.8 µM | 43.6 | 0.866 µM | 11.8 µM | 14.6 µM | 28.1 µM | 12.8 µM | 38.4 µM | 1.83 µM | 10.1 µM | 19.2 µM | 39.5 µM | 15 µM | 30.5
CC(C)C(=O)Nc1nc2nc[nH]c2c(=O)[nH]1 |  | > 100 µM |  | > 100 µM |  | > 100 µM |  | > 100 |  | > 100 µM |  | > 100 µM |  | > 100 µM |  | > 100 µM |  | > 100 µM |  | > 100
COCCN1C2=CCCCC2=Nc2c1nc(N)[nH]c2=O |  | > 100 µM |  | > 100 µM |  | > 100 µM |  | > 100 |  | > 100 µM |  | > 100 µM |  | > 100 µM |  | > 100 µM |  | > 100 µM |  | > 100
CC(C)(C)OC(=O)C#CC[C@H]1CCCC1/C=C/C(O)=C1/C(=O)NC(CCCNC(=O)OC(C)(C)C)C1=O (stereo partly drawn) |  | > 100 µM |  | 23.9 µM |  | 59 µM |  | 89.3 |  | 57.6 µM |  | > 100 µM |  | 84.5 µM |  | > 100 µM |  | 84.5 µM |  | 74.8
C=C1C(=O)O[C@H]2[C@H]1[C@H](OC(=O)/C(C)=C\C)CC(=C)[C@@H]1[C@H](O)[C@H]3O[C@@]3(C)[C@@]12O |  | > 100 µM |  | > 100 µM |  | > 100 µM |  | > 100 |  | > 100 µM |  | > 100 µM |  | > 100 µM |  | > 100 µM |  | > 100 µM |  | > 100
COC(=O)[C@H](Cc1cn(C)cn1)NC(=O)[C@H](Cc1c[nH]c2ccccc12)NC(=O)Nc1cc(C(F)(F)F)cc(C(F)(F)F)c1 | > 10 µM | > 10 µM | > 10 µM | > 10 µM | > 10 µM | > 10 µM | > 10 µM | > 10 | > 10 µM | > 10 µM | > 10 µM | > 10 µM | > 10 µM | > 10 µM | > 10 µM | > 10 µM | > 10 µM | > 10 µM | > 10 µM | > 10
c1cc(-c2cn3ccsc3n2)ccn1 |  | > 100 µM |  | > 100 µM |  | > 100 µM |  | > 70.3 |  | > 100 µM |  | > 100 µM |  | > 81.4 µM |  | > 100 µM |  | > 100 µM |  | > 100
O=C(c1ccccc1)C1N=NCC1c1ccc([N+](=O)[O-])cc1 (stereo not drawn) |  | > 100 µM |  | > 100 µM |  | 88.1 µM |  | > 100 |  | > 100 µM |  | 48.4 µM |  | > 100 µM |  | 84.7 µM |  | > 100 µM |  | > 100
Cc1ccc(C(=O)O/N=C2/CCC/C2=C\c2ccccc2)cc1 |  | > 100 µM |  | > 100 µM |  | > 100 µM |  | > 100 |  | > 100 µM |  | > 100 µM |  | > 100 µM |  | > 100 µM |  | > 100 µM |  | > 100
